Data from the supplement of paper PMC4723716.
Counter-ions that a name gives are not always drawn.

Tested on: Plasmodium falciparum NF54 gametocytes
Conditions: 384, incubation time: 72 h
Experimental: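 Known antimalarials and MMV control compounds in dose response against each stage (I–V) […] The fitted EC50 is reported as IC50 in µM; '>' marks the top dose reached without a curve.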

[1] = gametocyte stage: Stage I Dose Response IC50 (µM), assay protocol: TSSA
[2] = gametocyte stage: Stage II Dose Response IC50 (µM), assay protocol: TSSA
[3] = gametocyte stage: Stage III Dose Response IC50 (µM), assay protocol: TSSA
[4] = gametocyte stage: Stage IV Dose Response IC50 (µM), assay protocol: TSSA
[5] = gametocyte stage: Stage V Dose Response IC50 (µM), assay protocol: TSSA
[6] = gametocyte stage: Stage I Dose Response IC50 (µM), assay protocol: SaLSSA
[7] = gametocyte stage: Stage II Dose Response IC50 (µM), assay protocol: SaLSSA
[8] = gametocyte stage: Stage III Dose Response IC50 (µM), assay protocol: SaLSSA
[9] = gametocyte stage: Stage IV Dose Response IC50 (µM), assay protocol: SaLSSA
[10] = gametocyte stage: Stage V Dose Response IC50 (µM), assay protocol: SaLSSA

| Compound | IC50 of gametocyte viability [1] | IC50 of gametocyte viability [2] | IC50 of gametocyte viability [3] | IC50 of gametocyte viability [4] | IC50 of gametocyte viability [5] | IC50 of gametocyte viability [6] | IC50 of gametocyte viability [7] | IC50 of gametocyte viability [8] | IC50 of gametocyte viability [9] | IC50 of gametocyte viability [10] |
| --- | --- | --- | --- | --- | --- | --- | --- | --- | --- | --- |
| C[C@H]1[C@H](OC(=O)CCC(=O)O)O[C@@H]2O[C@@]3(C)CC[C@H]4[C@H](C)CC[C@@H]1[C@@]24OO3 [Artesunate] | 0.00565 µM | 0.00577 µM | 0.0172 µM | 0.02 µM | > 12.5 µM | – | – | – | – | – |
| O=C1C(O)=C([C@H]2CC[C@H](c3ccc(Cl)cc3)CC2)C(=O)c2ccccc21 [Atovaquone] [listing 1 of 2 here] | > 12.5 µM | > 12.5 µM | > 12.5 µM | > 12.5 µM | > 12.5 µM | – | – | – | – | – |
| O=C1C(O)=C([C@H]2CC[C@H](c3ccc(Cl)cc3)CC2)C(=O)c2ccccc21 [Atovaquone] [listing 2 of 2 here] | – | – | – | – | – | > 12.5 µM | > 12.5 µM | > 12.5 µM | 2.37 µM | > 12.5 µM |
| CC[C@H]1OC(=O)[C@H](C)[C@@H](O[C@H]2C[C@@](C)(OC)[C@@H](O)[C@H](C)O2)[C@H](C)[C@@H](O[C@@H]2O[C@H](C)C[C@H](N(C)C)[C@H]2O)[C@](C)(O)C[C@@H](C)CN(C)[C@H](C)[C@@H](O)[C@]1(C)O [Azithromycin] | > 12.5 µM | > 12.5 µM | > 12.5 µM | > 12.5 µM | > 12.5 µM | – | – | – | – | – |
| CC[C@H]1OC(=O)[C@H](C)[C@H](O[C@H]2C[C@@](C)(OC)[C@@H](O)[C@H](C)O2)[C@H](C)[C@@H](O[C@@H]2O[C@H](C)C[C@H](N(C)C)[C@H]2O)[C@](C)(O)C[C@@H](C)CN(C)[C@H](C)[C@H](O)[C@]1(C)O [Azithromycin] | – | – | – | – | – | > 12.5 µM | > 12.5 µM | > 12.2 µM | > 12.5 µM | > 12.5 µM |
| CCN(CC)CCCC(C)Nc1ccnc2cc(Cl)ccc12 (stereo not given) [Chloroquine] | 0.084 µM | 0.0806 µM | > 6.25 µM | > 6.25 µM | > 6.25 µM | 0.0956 µM | 0.0981 µM | > 6.25 µM | > 6.25 µM | > 6.25 µM |
| CC(C)NC(=N)NC(=N)Nc1ccc(Cl)c(Cl)c1 [Chlorproguanil hydrochloride/1.11] | > 12.5 µM | > 12.5 µM | 8.37 µM | 7.57 µM | > 11 µM | 9.35 µM | 7.79 µM | 7.87 µM | 5.21 µM | 4.8 µM |
| CC1(C)N=C(N)N=C(N)N1c1ccc(Cl)cc1 [Cycloguanil] | – | – | – | – | – | > 12.5 µM | > 12.5 µM | > 12.5 µM | > 12.5 µM | > 12.5 µM |
| C[C@@H]1C[C@@H]([C@H](O)CC2CC(=O)NC(=O)C2)C(=O)[C@@H](C)C1 [Cycloheximide] [listing 1 of 2 here] | 1.23 µM | 2.46 µM | 2.51 µM | 1.92 µM | 4.62 µM | – | – | – | – | – |
| C[C@@H]1C[C@@H]([C@H](O)CC2CC(=O)NC(=O)C2)C(=O)[C@@H](C)C1 [Cycloheximide] [listing 2 of 2 here] | – | – | – | – | – | 1.92 µM | 0.64 µM | 0.913 µM | 0.477 µM | 2.69 µM |
| Nc1ccc(S(=O)(=O)c2ccc(N)cc2)cc1 [Dapsone] | – | – | – | – | – | > 12.5 µM | > 12.5 µM | > 12.5 µM | > 12.5 µM | > 12.5 µM |
| CC(=O)N(O)CCCCCNC(=O)CCC(=O)N(O)CCCCCNC(=O)CCC(=O)N(O)CCCCCN [Deferoxamine mesylate salt] | – | – | – | – | – | > 12.5 µM | > 12.5 µM | > 12.5 µM | > 12.5 µM | > 12.5 µM |
| C[C@H]1c2cccc(O)c2C(=O)C2=C(O)[C@]3(O)C(=O)C(C(N)=O)=C(O)[C@@H](N(C)C)[C@@H]3[C@@H](O)[C@@H]21 [Doxycyclin] | – | – | – | – | – | > 12.5 µM | > 12.5 µM | > 12.5 µM | > 12.5 µM | > 12.5 µM |
| C[C@H]1c2cccc(O)c2C(O)=C2C(=O)[C@]3(O)C(O)=C(C(N)=O)C(=O)[C@@H](N(C)C)[C@@H]3[C@@H](O)[C@@H]21 [Doxycyclin] | > 12.5 µM | > 12.5 µM | > 12.5 µM | > 12.5 µM | > 12.5 µM | – | – | – | – | – |
